One data set deals with T1, human ETA receptors (Homo sapiens, UniProt P25101).
T1 construct: endogenously expressed human ETA receptors in SK-N-MC cells; host or cells: SK-N-MC cells
T1 sequence (P25101 21-427): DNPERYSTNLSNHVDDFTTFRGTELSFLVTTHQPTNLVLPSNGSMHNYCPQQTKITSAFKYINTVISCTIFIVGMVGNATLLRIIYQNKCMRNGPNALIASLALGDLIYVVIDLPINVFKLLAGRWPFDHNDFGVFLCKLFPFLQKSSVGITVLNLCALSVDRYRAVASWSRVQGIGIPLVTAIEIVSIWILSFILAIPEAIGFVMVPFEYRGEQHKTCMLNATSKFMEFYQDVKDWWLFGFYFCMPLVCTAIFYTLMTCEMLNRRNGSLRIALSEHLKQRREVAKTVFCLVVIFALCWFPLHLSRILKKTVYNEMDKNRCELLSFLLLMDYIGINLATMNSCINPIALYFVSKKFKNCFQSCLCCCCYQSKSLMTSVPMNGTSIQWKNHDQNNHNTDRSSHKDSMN
The data set can be described thus: In vitro antagonistic effect on human ETA receptors (Ca2+ fluorescence, SK-N-MC cells). Format: cell-based. The method, then:
The antagonistic activity of the compounds on endogenously expressed human ETA receptors in SK-N-MC cells was assessed by measuring the effects of the compounds on changes in cytoplasmic Ca^2+ ion signaling induced by an agonist of human ETA receptor using a fluorescence assay. The functional activity of the ETA receptor antagonistic effect was tested at Eurofins-Cerep SA according to current standard operating procedures.
• 1. Cells were suspended in Dulbecco's modified Eagle medium solution (DMEM, Invitrogen) supplemented with 1% FCSd and then distributed at a density of 5×10^4 cells/well in 384 plates (100 μL/well). • 2. Hank's Balanced Salt Solution (HBSS, Invitrogen) supplemented with 20 mM 4-(2-hydroxyethyl) piperazine-1-ethanesulfonic acid (Hepes, Invitrogen) (pH 7.4) was mixed with the fluorescent probe (Fluo4 NW, Invitrogen) and added to each well. Equilibrated with the cells for 60 minutes at 37° C. and then for 15 min at 22° C. • 3. The assay plate was placed in a microplate reader (CellLux, PerkinElmer). DMSO solution of the test compound and the positive control in appropriate concentration or HBSS buffer was added. After 5 minutes, 1 nM endothelin-1 or HBSS buffer (basal control) was added. Then the change in fluorescence intensity was measured. The fluorescence intensity is in proportion to the Ca^2+ ion concentration of the free cytosol. • 4. […] The standard positive control was BQ-123 and several concentrations were tested in each experiment and the data was analyzed using Prism to produce a concentration-response curve to calculate the IC50 values of the compounds. • 6.

A short description of data set [1]: Pharmacokinetic evaluation in Beagle dogs. Format: in vivo. The following applies: for Bioavailability F: 3 mg/kg. The method, then: Male Beagle dogs were used as the test animals in this study. The LC/MS/MS method was applied to quantify the plasma drug concentrations in Beagle dogs at different time points after administration of the test compound by intravenous injection or oral gavage to evaluate the pharmacokinetic profile of the test compound in Beagle dogs.
Beagle dogs (Male, 6-15 kg, above 6 months, Beijing Marshall Biotechnology Co.)
A clear solution of the test compound was administered to the Beagle dogs by intravenous injection (overnight fasting) or oral gavage (overnight fasting). At 0 h (before administration by intravenous injection) and at 0.0833, 0.25, 0.5, 1, 2, 4, 6, 8 and 24 h after administration by intravenous injection, about 500 μL of blood was collected from peripheral blood vessels into anticoagulation tubes supplemented with EDTA-K2 (Jiangsu Kangjian Medical Supplies Co., Ltd.). At 0 hours (before administration by oral gavage) and 0.25, 0.5, 1, 2, 4, 6, 8 and 24 hours after administration by oral gavage, about 500 μL of blood was collected from peripheral blood vessels into anticoagulation tubes supplemented with EDTA-K2. The mixture in the anticoagulation tube was vortexed thoroughly at 4° C. and the plasma was then centrifuged at 13,000 rpm for 10 minutes to obtain the plasma. Blood concentrations were determined by LC/MS/MS and the relevant pharmacokinetic parameters were calculated using WinNonlin™ Version 6.3 (Pharsight, Mountain View, CA) pharmacokinetics software with a non-compartmental model linear-log trapezoidal method.

Take `COCCNS(=O)(=O)Nc1ncnc(OCCOc2ncc(Br)cn2)c1-c1ccc2c(c1)OCO2`: on human ETA receptors, the “In vitro antagonistic activity against the human ETA receptor (in words)” value is recorded as “very high” and the “Selectivity for ETA over ETB” value is reported as 20,000 fold. The molecule further gave an IC50 against human ETA receptors (SK-N-MC cells, 1 nM endothelin-1) of 1.6 nM. Also, the “ETA/ETB Selectivity” value on human ETA receptors (table value) is 20000.

With `COCCNS(=O)(=O)Nc1ncnc(OCCOc2ncc(Br)cn2)c1-c1ccc2c(c1)OCO2` [Compound of formula (I)], the “Area under the drug concentration-time curve” value in data set [1] (intravenous injection 1 mg/kg) worked out at 7.56 µM·h. In addition, in data set [1] (oral 3 mg/kg), the “Area under the drug concentration-time curve” value came out at 33.40 µM·h, the Peak concentration was determined as 12.75 µM, the Peak time came to 0.38 h and the “Bioavailability F” value was 147%. For the same molecule, in data set [1] (oral 3 mg/kg, listed as compound of formula (I)), the “Bioavailability F” value is reported as over 50%.

What is called IC50 is the point on the concentration scale where inhibition reaches its midpoint.

For the origin of these results see patent US12297192B2, “Crystal form of pyrimidine sulfonamide compound and preparation method therefor” (WUXI BIOCITY BIOPHARMACEUTICS CO., LTD., priority 2019, dated 2025).
